Results on four compounds are retold here after patent US20030114492A1, “Method of using neurotrophic sulfonamide compounds” (priority 1997, published 2003).

For assay [1], the system named is TH-positive dopaminergic neurons in the striatum. Put plainly: MPTP model of Parkinson's Disease, TH immunostaining of striatum. The class given is in vivo. The note with it: MPTP-lesioned CD1 mice (30 mg/kg i.p. for 5 days), compound 4 mg/kg s.c. for 10 days, striatum at 18 days. As for the experimental part: MPTP lesioning of dopaminergic neurons in mice was used as an animal model of Parkinson's Disease. Four week old male CD1 white mice were dosed i.p. with 30 mg/kg of MPTP for 5 days. Test compounds (4 mg/kg), or vehicle, were administered s.c. along with the MPTP for 5 days, as well as for an additional 5 days following cessation of MPTP treatment. At 18 days following MPTP treatment, the animals were sacrificed and the striata were dissected and perfusion-fixed. Immunostaining was performed on saggital and coronal brain sections using anti-tyrosine hydroxylase […] to quantitate survival and recovery of dopaminergic neurons. In animals treated with MPTP and vehicle, a substantial loss of functional dopaminergic terminals was observed as compared to non-lesioned animals.

The subject of assay [2] is chick dorsal root ganglia. Put plainly: Chick dorsal root ganglion cultures and neurite outgrowth. The class given is cell-based. To be noted: Gallus gallus, 48 h; read-out: ED50 (the source's name). The method, then:
Dorsal root ganglia were dissected from chick embryos of ten day gestation. Whole ganglion explants were cultured on thin layer Matrigel-coated 12 well plates with Liebovitz L15 plus high glucose media supplemented with 2 mM glutamine and 10% fetal calf serum, and also containing 10 μM cytosine β-D arabinofuranoside (Ara C) at 37° C. in an environment containing 5% CO2. Twenty-four hours later, the DRGs were treated with various immunophilin ligands. Forty-eight hours after drug treatment, the ganglia were visualized under phase contrast or Hoffman Modulation contrast with a Zeiss Axiovert inverted microscope. Photomicrographs of the explants were made, and neurite outgrowth was quantitated. Neurites longer than the DRG diameter were counted as positive, with total number of neurites quantitated per each experimental condition. Three to four DRGs are cultured per well, and each treatment was performed in duplicate.
The data for these experiments for representative compounds are presented in the “ED50” column of Table I.

The next assay has as its target FKBP12 (Homo sapiens, UniProt P62942). Put plainly: Ki test procedure: inhibition of peptidyl-prolyl isomerase (rotamase) activity, chymotrypsin-coupled assay. The class given is biochemical. The note with it: apparent Ki, rotamase activity of FKBP, substrate N-succinyl-Ala-Ala-Pro-Phe-p-nitroanilide. The source says:
The inhibition of the prolyl peptidyl cis-trans isomerase activity of FKBP may be measured as an indicator of this affinity.
Inhibition of the peptidyl-prolyl isomerase (rotamase) activity of the inventive compounds can be evaluated by known methods described in the literature (Harding, et al., Nature, 1989, 341:758-760; Holt et al. J. Am. Chem. Soc., 115:9923-9938). These values are obtained as apparent Ki's and are presented in Table I. The cis-trans isomerization of an alanine-proline bond in a model substrate, N-succinyl-Ala-Ala-Pro-Phe-p-nitroanilide, is monitored spectrophotometrically in a chymotrypsin-coupled assay, which releases para-nitroanilide from the trans form of the substrate. The inhibition of this reaction caused by the addition of different concentrations of inhibitor is determined, and the data is analyzed as a change in first-order rate constant as a function of inhibitor concentration to yield the apparent Ki values.
In a plastic cuvette are added […] of ice cold assay buffer (25 mM HEPES, pH 7.8, 100 mM NaCl), […] of FKBP (2.5 mM in 10 mM Tris-Cl pH 7.5, 100 mM NaCl, 1 mM dithiothreitol), […] of chymotrypsin (50 mg/ml in 1 mM HCl) and […] of test compound at various concentrations in dimethyl sulfoxide. The reaction is initiated by the addition of 5 mL of substrate (succinyl-Ala-Phe-Pro-Phe-para-nitroanilide, 5 mg/mL in 2.35 mM LiCl in trifluoroethanol).
The absorbance at 390 nm versus time is monitored for 90 seconds using a spectrophotometer and the rate constants are determined from the absorbance versus time data files.

Sequence of FKBP12 (P62942 whole entry, species assumed): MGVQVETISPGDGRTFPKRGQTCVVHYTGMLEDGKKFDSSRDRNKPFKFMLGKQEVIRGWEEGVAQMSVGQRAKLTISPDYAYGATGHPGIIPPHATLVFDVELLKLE

As to `O=C(OCCCCc1ccccc1)C1CCCCN1S(=O)(=O)Cc1ccccc1` (stereo not drawn) [Compound 2, 4-Phenyl-1-butyl 1-(α-tolylsulfonyl)-2-pipecolinate], the “% Rescue, TH Immunostaining at 4 mg/kg, s.c.” value (shortened to “% Rescue, TH Immunostaining”) in assay [1] is recorded as 38.00%. In addition, the EC50 in assay [2] turned out to be 0.031 nM. Further, on FKBP12, the Ki is 34 nM.

Take `O=C(OC(CCc1ccccc1)CCc1ccccc1)C1CCCCN1S(=O)(=O)Cc1ccccc1` (stereo not drawn) [Compound 3, 1,5-Diphenyl-3-pentyl N-(α-toluenesulfonyl)-pipecolate]: in assay [2], the EC50 amounted to 0.133 nM. Also, the Ki on FKBP12 was determined as 107 nM.

`O=C(OCCCc1cccnc1)[C@@H]1CCCN1S(=O)(=O)Cc1ccccc1` [Compound 1, 3-(3-Pyridyl)-1-propyl(2S)-N-(α-toluenesulfonyl)pyrrolidine-2-carboxylate]: the “% Rescue, TH Immunostaining” value in assay [1] is on record as 44.31%. In addition, the EC50 in assay [2] came out at 0.002 nM. The Ki on FKBP12 was determined as 72 nM.

`O=C(OCCCCc1ccccc1)C1CCCCN1S(=O)(=O)c1ccccc1` (stereo not drawn) [4-phenyl-1-butyl-N-(benzenesulfonyl) pipecolate]: in assay [1], the “% Rescue, TH Immunostaining” value is given as 29.22%.
